This note sets out measurements from patent US20250230193A1, “CYCLIC COMPOUND HAVING SELECTIVE KRAS INHIBITORY EFFECT ON HRAS AND NRAS” (CHUGAI SEIYAKU KABUSHIKI KAISHA, priority 2022, published 2025).

Test [1] addresses GDP-bound NRAS wild-type protein (Homo sapiens, UniProt P01111). Nature of the test: Binding to NRAS by surface plasmon resonance (SPR), Single Cycle Kinetics. The note with it: SPR; KD ratio class. For orientation: In SPR one partner is held on a chip, and binding of the other changes the refractive index at the surface.
Test [2] addresses GDP-bound HRAS wild-type protein (Homo sapiens, UniProt P01112). Nature of the test: Binding to HRAS by surface plasmon resonance (SPR), Single Cycle Kinetics. As to conditions: SPR; KD ratio class.

Sequence of GDP-bound HRAS wild-type protein (P01112 whole entry): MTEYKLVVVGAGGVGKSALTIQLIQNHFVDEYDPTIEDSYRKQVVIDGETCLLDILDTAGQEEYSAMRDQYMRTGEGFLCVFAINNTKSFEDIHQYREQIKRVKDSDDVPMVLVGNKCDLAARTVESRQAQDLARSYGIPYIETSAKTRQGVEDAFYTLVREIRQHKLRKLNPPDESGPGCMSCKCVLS
Sequence of GDP-bound NRAS wild-type protein (P01111 whole entry): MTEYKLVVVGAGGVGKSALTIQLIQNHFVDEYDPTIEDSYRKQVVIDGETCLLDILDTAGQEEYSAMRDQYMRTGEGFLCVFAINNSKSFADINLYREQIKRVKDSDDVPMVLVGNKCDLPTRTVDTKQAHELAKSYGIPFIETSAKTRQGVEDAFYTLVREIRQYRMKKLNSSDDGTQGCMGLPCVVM

Turning to `CCO[C@@H]1C[C@H]2C(=O)NC3(CCC3)C(=O)N(C)[C@@H](C3CCCC3)C(=O)N(C)[C@H](C(=O)N(C)CCOC)CC(=O)N(C)[C@@H](C)C(=O)N[C@@H]([C@@H](C)CC)C(=O)N(C)CC(=O)N(C)[C@H]3C/C=C\CCN(C3=O)[C@@H](Cc3ccc(C(F)(F)F)cc3)C(=O)N(C)CC(=O)N[C@@H](CCc3cc(F)c(C(F)(F)F)c(F)c3)C(=O)N2C1` [PP1319], the “NRAS/KRAS (ratio of KD value for GDP-bound NRAS wild-type protein to KD value for KRAS)” value in test [1] was “A (a compound having 10 or more and less than 20 is denoted as A)”. For the same molecule, in test [2], the “HRAS/KRAS (ratio of KD value for GDP-bound HRAS wild-type protein to KD value for KRAS)” value is “B (a compound having 3 or more and less than 10 is denoted as B)”.

Take `CCO[C@@H]1C[C@H]2C(=O)NC3(CCC3)C(=O)N(C)[C@@H](C3CCCC3)C(=O)N(C)[C@H](C(=O)N(C)CCOC)CC(=O)N(C)[C@@H](CC(F)F)C(=O)N[C@@H]([C@@H](C)CC)C(=O)N(C)CC(=O)N(C)[C@H]3C/C=C\CCN(C3=O)[C@@H](Cc3ccc(C(F)(F)F)cc3)C(=O)N(C)CC(=O)N[C@@H](CCc3cc(F)c(C(F)(F)F)c(F)c3)C(=O)N2C1` [PP1320]: in test [1], the “NRAS/KRAS (ratio of KD value for GDP-bound NRAS wild-type protein to KD value for KRAS)” value was “A (a compound having 10 or more and less than 20 is denoted as A)”. Besides, in test [2], the “HRAS/KRAS (ratio of KD value for GDP-bound HRAS wild-type protein to KD value for KRAS)” value was “A (a compound having 10 or more and less than 20 is denoted as A)”.

In the case of `CCO[C@@H]1C[C@H]2C(=O)NC3(CCC3)C(=O)N(C)[C@@H](C3CCCC3)C(=O)N(C)[C@H](C(=O)N(C)CCOC)CC(=O)N(C)[C@@H](CC)C(=O)N[C@@H]([C@@H](C)CC)C(=O)N(C)CC(=O)N(C)[C@H]3C/C=C\CCN(C3=O)[C@@H](Cc3ccc(C(F)(F)F)cc3)C(=O)N(C)CC(=O)N[C@@H](CCc3ccc(C(F)(F)F)c(OC)c3)C(=O)N2C1` [PP1321], in test [1], the “NRAS/KRAS (ratio of KD value for GDP-bound NRAS wild-type protein to KD value for KRAS)” value was “A (a compound having 10 or more and less than 20 is denoted as A)”. Also, the “HRAS/KRAS (ratio of KD value for GDP-bound HRAS wild-type protein to KD value for KRAS)” value in test [2] is “B (a compound having 3 or more and less than 10 is denoted as B)”.

Consider `CCO[C@@H]1C[C@H]2C(=O)NC3(CCC3)C(=O)N(C)[C@@H](C3CCCC3)C(=O)N(C)[C@H](C(=O)N(C)CCOC)CC(=O)N(C)[C@@H](CC)C(=O)N[C@@H]([C@@H](C)CC)C(=O)N(C)CC(=O)N(C)[C@H]3C/C=C\CCN(C3=O)[C@@H](Cc3ccc(C(F)(F)F)cc3)C(=O)N(C)CC(=O)N[C@@H](CCc3ccc4sccc4c3)C(=O)N2C1` [PP1322], for which the “NRAS/KRAS (ratio of KD value for GDP-bound NRAS wild-type protein to KD value for KRAS)” value in test [1] is “A (a compound having 10 or more and less than 20 is denoted as A)”. Further, in test [2], the “HRAS/KRAS (ratio of KD value for GDP-bound HRAS wild-type protein to KD value for KRAS)” value is “A (a compound having 10 or more and less than 20 is denoted as A)”.

Take `CCO[C@@H]1C[C@H]2C(=O)NC3(CCC3)C(=O)N(C)[C@@H](C3CCCC3)C(=O)N(C)[C@H](C(=O)N(C)CCOC)CC(=O)N(C)[C@@H](CC(C)C)C(=O)N[C@@H]([C@@H](C)CC)C(=O)N(C)CC(=O)N(C)[C@H]3C/C=C\CCN(C3=O)[C@@H](Cc3ccc(C(F)(F)F)cc3)C(=O)N(C)CC(=O)N[C@@H](CCc3ccc(C(F)(F)F)c(OC)c3)C(=O)N2C1` [PP1324]: in test [1], the “NRAS/KRAS (ratio of KD value for GDP-bound NRAS wild-type protein to KD value for KRAS)” value is “A (a compound having 10 or more and less than 20 is denoted as A)”. Also, the “HRAS/KRAS (ratio of KD value for GDP-bound HRAS wild-type protein to KD value for KRAS)” value in test [2] was “A (a compound having 10 or more and less than 20 is denoted as A)”.

As for `CCO[C@@H]1C[C@H]2C(=O)NC3(CCC3)C(=O)N(C)[C@@H](C3CCCC3)C(=O)N(C)[C@H](C(=O)N(C)CCOC)CC(=O)N(C)[C@@H](CC(C)C)C(=O)N[C@@H]([C@@H](C)CC)C(=O)N(C)CC(=O)N(C)[C@H]3C/C=C\CCN(C3=O)[C@@H](Cc3ccc(C(F)(F)F)cc3)C(=O)N(C)CC(=O)N[C@@H](CCc3ccc4sccc4c3)C(=O)N2C1` [PP1325], the “NRAS/KRAS (ratio of KD value for GDP-bound NRAS wild-type protein to KD value for KRAS)” value in test [1] is “A (a compound having 10 or more and less than 20 is denoted as A)”. For the same molecule, the “HRAS/KRAS (ratio of KD value for GDP-bound HRAS wild-type protein to KD value for KRAS)” value in test [2] was “A (a compound having 10 or more and less than 20 is denoted as A)”.

Regarding `CCO[C@@H]1C[C@H]2C(=O)NC3(CCC3)C(=O)N(C)[C@@H](C3CCCC3)C(=O)N(C)[C@H](C(=O)N(C)CCOC)CC(=O)N(C)[C@@H](CC(C)C)C(=O)N[C@@H]([C@@H](C)CC)C(=O)N(C)CC(=O)N(C)[C@H]3C/C=C\CCN(C3=O)[C@@H](Cc3ccc(C(F)(F)F)cc3)C(=O)N(C)CC(=O)N[C@@H](CCc3ccc(Cl)c(Cl)c3)C(=O)N2C1` [PP1326], the “NRAS/KRAS (ratio of KD value for GDP-bound NRAS wild-type protein to KD value for KRAS)” value in test [1] is recorded as “AA (a compound having 20 or more is denoted as AA)”. In test [2], the “HRAS/KRAS (ratio of KD value for GDP-bound HRAS wild-type protein to KD value for KRAS)” value is “A (a compound having 10 or more and less than 20 is denoted as A)”.

Consider `CCO[C@@H]1C[C@H]2C(=O)NC3(CCC3)C(=O)N(C)[C@@H](C3CCCC3)C(=O)N(C)[C@H](C(=O)N(C)CCOC)CC(=O)N(C)[C@@H](CC3CC3)C(=O)N[C@@H]([C@@H](C)CC)C(=O)N(C)CC(=O)N(C)[C@H]3C/C=C\CCN(C3=O)[C@@H](Cc3ccc(C(F)(F)F)cc3)C(=O)N(C)CC(=O)N[C@@H](CCc3ccc(C(F)(F)F)c(OC)c3)C(=O)N2C1` [PP1327], for which the “NRAS/KRAS (ratio of KD value for GDP-bound NRAS wild-type protein to KD value for KRAS)” value in test [1] was “A (a compound having 10 or more and less than 20 is denoted as A)”. Besides, in test [2], the “HRAS/KRAS (ratio of KD value for GDP-bound HRAS wild-type protein to KD value for KRAS)” value is “A (a compound having 10 or more and less than 20 is denoted as A)”.

With `CCO[C@@H]1C[C@H]2C(=O)NC3(CCC3)C(=O)N(C)[C@@H](C3CCCC3)C(=O)N(C)[C@H](C(=O)N(C)CCOC)CC(=O)N(C)[C@@H](CC3CC3)C(=O)N[C@@H]([C@@H](C)CC)C(=O)N(C)CC(=O)N(C)[C@H]3C/C=C\CCN(C3=O)[C@@H](Cc3ccc(C(F)(F)F)cc3)C(=O)N(C)CC(=O)N[C@@H](CCc3ccc4sccc4c3)C(=O)N2C1` [PP1328], the “NRAS/KRAS (ratio of KD value for GDP-bound NRAS wild-type protein to KD value for KRAS)” value in test [1] is “A (a compound having 10 or more and less than 20 is denoted as A)”. Also, the “HRAS/KRAS (ratio of KD value for GDP-bound HRAS wild-type protein to KD value for KRAS)” value in test [2] is “A (a compound having 10 or more and less than 20 is denoted as A)”.

As for `CCO[C@@H]1C[C@H]2C(=O)NC3(CCC3)C(=O)N(C)[C@@H](C3CCCC3)C(=O)N(C)[C@H](C(=O)N(C)CCOC)CC(=O)N(C)[C@@H](CC3CC3)C(=O)N[C@@H]([C@@H](C)CC)C(=O)N(C)CC(=O)N(C)[C@H]3C/C=C\CCN(C3=O)[C@@H](Cc3ccc(C(F)(F)F)cc3)C(=O)N(C)CC(=O)N[C@@H](CCc3ccc(Cl)c(Cl)c3)C(=O)N2C1` [PP1329], the “NRAS/KRAS (ratio of KD value for GDP-bound NRAS wild-type protein to KD value for KRAS)” value in test [1] is “AA (a compound having 20 or more is denoted as AA)”. The “HRAS/KRAS (ratio of KD value for GDP-bound HRAS wild-type protein to KD value for KRAS)” value in test [2] was “A (a compound having 10 or more and less than 20 is denoted as A)”.

Take `CCO[C@@H]1C[C@H]2C(=O)NC3(CCC3)C(=O)N(C)[C@@H](C(CC)CC)C(=O)N(C)[C@H](C(=O)N(C)CCOC)CC(=O)N(C)[C@@H](CC)C(=O)N[C@@H]([C@@H](C)CC)C(=O)N(C)CC(=O)N(C)[C@H]3C/C=C\CCN(C3=O)[C@@H](Cc3ccc(C(F)(F)F)cc3)C(=O)N(C)CC(=O)N[C@@H](CCc3cc(F)c(C(F)(F)F)c(F)c3)C(=O)N2C1` [PP1330]: in test [1], the “NRAS/KRAS (ratio of KD value for GDP-bound NRAS wild-type protein to KD value for KRAS)” value is listed as “AA (a compound having 20 or more is denoted as AA)”. The “HRAS/KRAS (ratio of KD value for GDP-bound HRAS wild-type protein to KD value for KRAS)” value in test [2] was “A (a compound having 10 or more and less than 20 is denoted as A)”.
